Data on 33 compounds can be found in patent US6265402A, “Use of 2-phenylmorpholin-5-one derivatives” (Nikken Chemicals Co., Ltd., priority 1996, dated 2001).

Each structure is given as a SMILES string. pIC50: −log10 of the molar value.

This assay has as its system Type IV PDE. As to the kind of experiment: Type IV PDE inhibitory activity. Type of assay: biochemical. To be noted: Type IV PDE partially purified from rat neutrophils; 3H-cAMP substrate, 30° C., 30 minutes. The method, then: Type I, III, IV, and V PDE isozymes were prepared to study the PDE inhibitory activities of and selectivities with the compound of the invention [Trends Pharmacol Sci., 12, 19-27 (1992)]. Type I PDE was purchased from Sigma Corp. Type III, IV, and V PDE isozymes were partially purified from platelets (Type III and V) or neutrophils (Type IV) collected from rats. Each enzyme source was homogenized in a buffer (pH 6.5) containing 20 mM bisTris, 2 mM EDTA (i.e., ethylenediamine tetraacetate), 0.1 mM PMSF (i.e., phenylmethylsulfonyl fluoride), 5 mM 2-mercaptoethanol, 0.001 mM pepstatin and 0.01 mM leupeptin and was centrifuged at 30000×G for 30 minutes to obtain a supernatant, which was applied to an ion exchange column (Q-sepharose First Flow, Pharmacia Corp.) and was eluted with 0 to 1M sodium acetate. Partially purified isozymes were identified by observing the effects by conventional inhibitors.
Each PDE isozyme and the test compound dissolved in DMSO (i.e., dimethyl sulfoxide) were added to 50 mM Tris-HCl buffer containing 5 mM magnesium chloride. ^3 H-cAMP (for type III and IV PDE) or ^3 H-cGMP (for type I and V PDE) were added as substrates and were reacted at 30° C. for 30 minutes. The reaction was terminated by placing the test tube in boiling water of 100° C. for 5 minutes. The nucleotides formed by PDE were broken down by 5'-nucleotidase to ^3 H-adenosine or 3H-guanosine. The unreacted substrate and reaction product were separated through an ion-exchange column (i.e., QAE sephadex, Pharmacia Corp.) The eluted ^3 H-nucleoside was measured for its radioactivity by a liquid scintillation counter. The inhibitory activities of the compound of the present invention are shown by the IC50 value (M). Further, the inhibitory activities of the test samples against Type I, III, and V are 1/10 or less than that against type IV.
With `COc1ccc(C2CNC(=O)CO2)cc1O[C@H]1CC[C@H](c2ccccc2)CC1` (relative stereo) [Compound No. 33, 2-[4-methoxy-3-(trans-4-phenylcyclohexyloxy)phenyl]morpholin-5-one], the pIC50 – broadly, −log10 of the IC50, conventionally taken in molar units – is 5.14.
Compound `COc1ccc(C2CN(C)C(=O)CO2)cc1O[C@H]1CC[C@H](c2ccccc2)CC1` (relative stereo) [Compound No. 45, 2-[4-methoxy-3-(trans-4-phenylcyclohexyloxy)phenyl]-4-methylmorpholin-5-one] had a pIC50 of 6.24.
On to `COc1ccc(C2CNC(=O)CO2)cc1OCc1ccccc1` (stereo not drawn) [Compound No. 3, 2-(3-benzyloxy-4-methoxyphenyl)morpholin-5-one], for which the pIC50 was 4.55.
Under `COc1ccc(C2CNC(=O)CO2)cc1OCCc1ccccc1` (stereo not drawn) [Compound No. 4, 2-(4-methoxy-3-phenethyloxyphenyl)morpholin-5-one] stands 5.57; under `COc1ccc(C2CNC(=O)CO2)cc1OC1Cc2ccccc2C1` (stereo not drawn) [Compound No. 6, 2-[3-(2-indanyloxy)-4-methoxyphenyl]morpholin-5-one], 6.49; under `COc1ccc(C2CNC(=O)CO2)cc1OC1CCCCC1` (stereo not drawn) [Compound No. 7, 2-(3-cyclohexyloxy-4-methoxyphenyl)morpholin-5-one], 4.96.
For the compound `COc1ccc(C2(C)CNC(=O)CO2)cc1OC1CCCC1` (stereo not drawn) [Compound No. 10, 2-(3-cyclopentyloxy-4-methoxyphenyl)-2-methylmorpholin-5-one], the negative logarithm of the IC50 (pIC50) was 5.52.
The compound `COc1ccc(C2(c3ccccc3)CNC(=O)CO2)cc1OC1CCCC1` (stereo not drawn) [Compound No. 11, 2-(3-cyclopentyloxy-4-methoxyphenyl)-2-phenylmorpholin-5-one] gave a pIC50 of 7.13.
For `COc1ccc(C2CN(C)C(=O)CO2)cc1OC` (stereo not drawn) [Compound No. 12, 2-(3.4-dimethoxyphenyl)-4-methylmorpholin-5-one], the pIC50 was 5.33.
For the compound `CCOC(=O)CN1CC(c2ccc(OC)c(OC3CCCC3)c2)OCC1=O` (stereo not drawn) [Compound No. 15, 2-(3-cyclopentyloxy-4-methoxyphenyl)-4-ethoxycarbonylmethylmorpholin-5-one], the pIC50 was 5.10.
The result for `COc1ccc(C2CN(Cc3ccncc3)C(=O)CO2)cc1OC1CCCC1` (stereo not drawn) [Compound No. 16, 2-(3-cyclopentyloxy-4-methoxyphenyl)-4-(4-pyridylmethyl)morpholin-5-one] reads 5.26; that for `CCN1CC(c2ccc(OC)c(OC3CCCC3)c2)OCC1=O` (stereo not drawn) [Compound No. 17, 2-(3-cyclopentyloxy-4-methoxyphenyl)-4-ethylmorpholin-5-one], 6.15; that for `COc1ccc(C2CN(Cc3ccc4ccccc4n3)C(=O)CO2)cc1OC1CCCC1` (stereo not drawn) [Compound No. 18, 2-(3-cyclopentyloxy-4-methoxyphenyl)-4-(2-quinolylmethyl)morpholin-5-one], 6.35.
Regarding `CCCCN1CC(c2ccc(OC)c(OC3CCCC3)c2)OCC1=O` (stereo not drawn) [Compound No. 19, 4-butyl-2-(3-cyclopentyloxy-4-methoxyphenyl)morpholin-5-one], the pIC50 was 5.23.
Turning to `COc1ccc(C2CN(C(C)=O)C(=O)CO2)cc1OC1CCCC1` (stereo not drawn) [Compound No. 20, 4-acetyl-2-(3-cyclopentyloxy-4-methoxyphenyl)morpholin-5-one], the pIC50 is 5.70.
In the case of `COc1ccc(C2CN(C)C(=O)CO2)cc1OC1Cc2ccccc2C1` (stereo not drawn) [Compound No. 21, 2-[3-(2-indanyloxy)-4-methoxyphenyl]-4-methylmorpholin-5-one], the pIC50 was 7.36.
As for `COc1ccc(C2(c3ccccc3)CN(C)C(=O)CO2)cc1OC1CCCC1` (stereo not drawn) [Compound No. 22, 2-(3-cyclopentyloxy-4-methoxyphenyl)-4-methyl-2-phenylmorpholin-5-one], the pIC50 is 6.60.
Compound `COc1ccc(C2(c3ccccc3)CN(Cc3ccncc3)C(=O)CO2)cc1OC1CCCC1` (stereo not drawn) [Compound No. 23, 2-(3-cyclopentyloxy-4-methoxyphenyl)-2-phenyl-4-(4-pyridylmethyl)morpholin-5-one] had a pIC50 of 5.62.
The compound `COc1ccc(C2(c3ccccc3)CNC(=O)CO2)cc1OC1Cc2ccccc2C1` (stereo not drawn) [Compound No. 24, 2-[3-(2-indanyloxy)-4-methoxyphenyl]-2-phenylmorpholin-5-one] showed a pIC50 of 7.52.
In the case of `COc1ccc(C2(c3ccccc3)CN(C)C(=O)CO2)cc1OC1Cc2ccccc2C1` (stereo not drawn) [Compound No. 25, 2-[3-(2-indanyloxy)-4-methoxyphenyl]-4-methyl-2-phenylmorpholin-5-one], the pIC50 was 6.96.
For `COc1ccc(C2CNC(=O)CO2)cc1OCCCCCc1ccccc1` (stereo not drawn) [Compound No. 26, 2-[4-methoxy-3-(5-phenylpentyloxy)phenyl]morpholin-5-one], the pIC50 was 6.21.
Under `COc1ccc(C2(C)CN(C)C(=O)CO2)cc1OC1Cc2ccccc2C1` (stereo not drawn) [Compound No. 28, 2.4-dimethyl-2-[3-(2-indanyloxy)-4-methoxyphenyl]morpholin-5-one] stands 7.52; under `COc1ccc(C2CN(C)C(=O)CO2)cc1OCCCCCc1ccccc1` (stereo not drawn) [Compound No. 29, 2-[4-methoxy-3-(5-phenylpentyloxy)phenyl]-4-methylmorpholin-5-one], 6.32.
Compound `COc1ccc(C2CNC(=O)CO2)cc1OCCOCc1ccccc1` (stereo not drawn) [Compound No. 30, 2-[3-[2-(benzyloxy)ethoxy]-4-methoxyphenyl]morpholin-5-one] had a pIC50 of 5.24.
`COc1ccc(C2CNC(=O)CO2)cc1OCCc1ccc(F)cc1` (stereo not drawn) [Compound No. 32, 2-[3-[2-(4-fluorophenyl)ethoxy]-4-methoxyphenyl]morpholin-5-one] showed a pIC50 of 5.77.
In turn, `COc1ccc(C2CNC(=O)CO2)cc1OCC1(c2ccccc2)CC1` (stereo not drawn) [Compound No. 34, 2-[4-methoxy-3-[(1-phenylcyclopropyl)methoxy]phenyl]morpholin-5-one] gave a pIC50 of 5.72.
Turning to `COc1ccc(C2CNC(=O)CO2)cc1OCCc1cccc2ccccc12` (stereo not drawn) [Compound No. 37, 2-[4-methoxy-3-[2-(1-naphthyl)ethoxy]phenyl]morpholin-5-one], the pIC50 was 5.57.
`CCN1CC(c2ccc(OC)c(OC3Cc4ccccc4C3)c2)OCC1=O` (stereo not drawn) [Compound No. 40, 4-ethyl-2-[3-(2-indanyloxy)-4-methoxyphenyl]morpholin-5-one] had a pIC50 of 7.03.
Regarding `COc1ccc(C2CN(C)C(=O)CO2)cc1OCCc1ccc(F)cc1` (stereo not drawn) [Compound No. 41, 2-[3-[2-(4-fluorophenyl)ethoxy]-4-methoxyphenyl]-4-methylmorpholin-5-one], the pIC50 was 6.42.
For the compound `COc1ccc(C2CN(C)C(=O)CO2)cc1OCC1(c2ccccc2)CC1` (stereo not drawn) [Compound No. 42, 2-[3-[(1-phenylcyclopropyl)methoxy]-4-methoxyphenyl]-4-methylmorpholin-5-one], the pIC50 is 6.51.
The result for `COc1ccc(C2CN(C)C(=O)CO2)cc1OCC1(C)CC1` (stereo not drawn) [Compound No. 43] reads 6.21; that for `COc1ccc(C2CN(C)C(=O)CO2)cc1OCC1CCCC1` (stereo not drawn) [Compound No. 44, 2-(3-cyclopentylmethoxy-4-methoxyphenyl)-4-methylmorpholin-5-one], 6.11.
`COc1ccc(C2CN(C)C(=O)CO2)cc1OCCOCc1ccccc1` (stereo not drawn) [Compound No. 46, 2-[4-methoxy-3-(2-benzyloxyethoxy)phenyl]-4-methylmorpholin-5-one] gave a pIC50 of 6.24.
